These results are taken from US20250145564A1, “SULFONYLUREA COMPOUND, PREPARATION METHOD THEREFOR, AND APPLICATION THEREOF” (SHANGHAI INSTITUTE OF MATERIA MEDICA, CHINESE ACADEMY OF …, priority 2021, published 2025).

The test system of assay [1] is mice with chronic heart failure (TAC). Description: Anti-heart failure effect in vivo, TAC mouse model. The settings on record: for impaired cardiac function (EF value, FS value, dp/dt reduced by TAC): daily gavage 0.2 mg/kg and 0.4 mg/kg; for cross-sectional area of cardiomyocytes, HE staining (myocardial hypertrophy) / positive area of Sirius red staining (myocardial fibrosis): daily gavage eight weeks, I-1, I-23 0.2 and 0.4 mg/kg, glimepiride 1.2 mg/kg. An excerpt: (§1) 12-week-old male C57BL/6 mice, which were purchased from Gempharmatech Co., Ltd, were raised in the SPF animal house of Tongji Medical College, Huazhong University of Science and Technology. After one week of acclimatization in the animal house, the mice were subjected to thoracic aortic constriction as the TAC group. Another group of mice were subjected to thoracotomy without ligation of thoracic aorta as Sham group. Meanwhile, AUDA was used as the positive control.
(§2) Cardiac ultrasound detection was performed on a Visual Sonics Vevo 2100 small animal ultrasound imager. The major measurement indicators include heart rate (HR), left ventricular ejection fraction (LVEF), left ventricular fractional shortening (LVFS), left ventricular internal dimension-diastole (LVIDd) and left ventricular internal dimension-systole (LVIDs), and left ventricular posterior wall thickness (LVPWd and LVPWs).
(§3) The detection was performed on a Millar pressure-volume system from Millar Instr Ment PowerLab. After the animals were anesthetized to an appropriate extent, a midline incision was made in the neck, the right common carotid artery was separated, ligated at the distal end and clipped at the proximal end. A V-shaped incision was made on the artery with microscissors, and a microcatheter was inserted to the left ventricle. Signals were recorded through a conduction system to obtain hemodynamic data such as heart rate (HR), left ventricular end diastolic pressure (PED), left ventricular end systolic pressure (PES), maximum rate of decrease in left ventricular pressure (−dp/dtmin), and maximum rate of increase in left ventricular pressure (+dP/dtmax).
(§4) The myocardial tissue was placed in an embedding frame, soaked and fixed in neutral formaldehyde solution, dehydrated, and embedded in paraffin. The paraffin block was then sliced into sections with a thickness of 4 μm on a microtome. The general appearance of the myocardium was observed through HE staining, and the myocardial fibrosis was observed through Sirius red staining.
(§5) Total RNA was extracted using Invitrogen's Trizol reagent, then cDNA was obtained using TAKARA's reverse transcription kit, and finally the mRNA content of related genes was amplified with specific primers.
(§6) Cardiac ultrasound examination was performed two weeks after TAC surgery. 24 TAC mice with no significant difference in cardiac function were selected and randomly divided into a model group (TAC) and a treatment group (TAC+compound). The model group received no other treatment, while the treatment group received daily gavage (0.2 mg/kg and 0.4 mg/kg for I-1 and I-23 of the present application, and 1.2 mg/kg for glimepiride). Eight weeks later, i.e., at the chronic heart failure phase, the animals were sacrificed, and tissue specimens were collected to perform the above detections.

Another assay deals with T1, sEH (human recombinant) (Homo sapiens, UniProt P34913).
T1 sequence (P34913 1-555): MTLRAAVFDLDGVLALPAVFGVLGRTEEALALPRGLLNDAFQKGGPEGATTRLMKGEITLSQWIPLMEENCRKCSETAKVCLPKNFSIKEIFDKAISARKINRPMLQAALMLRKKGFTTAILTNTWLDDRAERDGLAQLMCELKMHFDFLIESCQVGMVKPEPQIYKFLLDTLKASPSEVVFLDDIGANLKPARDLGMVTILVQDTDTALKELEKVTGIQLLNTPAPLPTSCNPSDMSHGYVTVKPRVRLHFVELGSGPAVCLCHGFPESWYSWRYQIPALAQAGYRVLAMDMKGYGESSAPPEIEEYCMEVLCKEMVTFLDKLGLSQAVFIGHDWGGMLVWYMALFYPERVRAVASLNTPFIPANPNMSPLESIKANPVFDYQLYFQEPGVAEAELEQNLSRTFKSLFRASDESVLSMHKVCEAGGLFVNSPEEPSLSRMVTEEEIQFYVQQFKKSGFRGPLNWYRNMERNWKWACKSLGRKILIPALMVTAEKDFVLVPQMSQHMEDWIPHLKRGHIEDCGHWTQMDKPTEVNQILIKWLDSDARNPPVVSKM
Description: sEH inhibition assay (fluorescence).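 Further: enzyme preincubated with compound 30 min at 25 °C, then substrate added and fluorescence read after 15 min at 25 °C, 320 nm and 460 nm, versus DMSO negative control.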

The subject of assay [2] is PE induced cardiomyocyte remodeling (AC16). The experiment in a line: Inhibitory effect on PE induced myocardial injury (BNP mRNA). It counts as cell-based, human. The settings on record: PE 100 μM, 24 hours; compounds 0.1, 0.5, 1 μM; glimepiride 10 μM. On the procedure:
(§7) Biomaterial sources: Human cardiomyocyte cell line AC16 was purchased from ATCC, USA. Phenylephrine (PE) was purchased from Sigma Company. AUDA was purchased from Cayman Company.
PE was dissolved in disinfected deionized water with a working concentration of 100 μM. The compounds were dissolved in DMSO, and the working concentrations were 0.1, 0.5, 1 μM for the compounds of the present invention, 10 μM for glimepiride, and 1 μM for AUDA. The incubation time was 24 hours.
as §5
(§8) After 24 hours of incubation, cardiomyocytes were collected to perform the above detection.

Assay [3] has as its target T2, sEH in cardiomyocytes (AC16) (Homo sapiens, UniProt P34913).
T2 construct: endogenous in cells; host or cells: AC16 human cardiomyocyte cell line (ATCC)
T2 sequence (P34913 1-555): T1 sequence (P34913 1-555)
Description: Inhibition assay on sEH in cardiomyocytes (14,15-EET/DHET ELISA). It counts as cell-based. The settings on record: AC16, 0.1, 1 and 10 μM, 24 hours; for content of DHET in cardiomyocytes / content of EETs in cardiomyocytes: compared with the control. On the procedure: as §7
The compounds were dissolved in DMSO. The working concentrations were 0.1, 1 and 10 μM for the compounds of the present invention, 0.1, 1 and 10 μM for glimepiride, and 1 μM for AUDA. The incubation time was 24 hours.
(§9) The ELISA detection kit (BIOTARGET 14,15-EET/DHET ELISA KIT) from Detroit R&D company was used, and the experiment was conducted according to the instructions of the kit.
as §8

The test system of assay [4] is mice with chronic heart failure (TAC). Description: TAC mouse model, comparison of I-23 and Empagliflozin. It counts as in vivo.
Description: as §1, §2, §3, §4, §5
Cardiac ultrasound examination was performed two weeks after TAC surgery. 24 TAC mice with no significant difference in cardiac function were selected and randomly divided into a model group (TAC) and a treatment group (TAC+compound). The model group received no other treatment, while the treatment group received daily gavage (0.44 mg/kg for I-23 or 10 mg/kg for Empagliflozin). Eight weeks later, i.e., at the chronic heart failure phase, the animals were sacrificed, and tissue specimens were collected to perform the above detections.
This experiment was to compare the ameliorative effects of I-23 and Empagliflozin on chronic heart failure.

In assay [5] the target is T3, sEH in the hearts of mice with chronic heart failure (Mus musculus, UniProt P34914).
T3 construct: from tissue; host or cells: heart tissue of male C57BL/6 mice after TAC surgery
T3 sequence (P34914 1-554): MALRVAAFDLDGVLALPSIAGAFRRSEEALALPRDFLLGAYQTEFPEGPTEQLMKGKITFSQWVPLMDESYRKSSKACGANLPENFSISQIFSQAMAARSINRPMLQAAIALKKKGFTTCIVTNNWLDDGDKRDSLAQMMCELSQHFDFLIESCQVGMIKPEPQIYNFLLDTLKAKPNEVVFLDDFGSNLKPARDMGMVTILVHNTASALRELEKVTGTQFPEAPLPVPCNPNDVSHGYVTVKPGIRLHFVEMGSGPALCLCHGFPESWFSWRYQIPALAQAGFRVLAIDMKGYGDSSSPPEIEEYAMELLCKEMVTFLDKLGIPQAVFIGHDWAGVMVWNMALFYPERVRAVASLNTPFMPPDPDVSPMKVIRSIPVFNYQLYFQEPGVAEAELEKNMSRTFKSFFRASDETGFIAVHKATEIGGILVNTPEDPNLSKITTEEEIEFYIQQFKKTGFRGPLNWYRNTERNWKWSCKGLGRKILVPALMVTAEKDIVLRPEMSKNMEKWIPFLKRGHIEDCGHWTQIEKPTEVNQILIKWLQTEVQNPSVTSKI
The experiment in a line: sEH enzymic activity in hearts of TAC mice. It counts as in vivo. Conditions: daily gavage 1.2 mg/kg, eight weeks. As for the experimental part: as §9, §1, §6

Setting [6] is: I-23 0.44 mg/kg vs Empagliflozin 10 mg/kg.
The mark [7] stands for this setting: mice, daily gavage eight weeks, I-23 0.44 mg/kg, Empagliflozin 10 mg/kg.

Description for sEH (human recombinant): sEH Assay Buffer was purchased from Cayman Chemical; sEH (human recombinant) was purchased from Cayman Chemical; sEH substrate was purchased from Cayman Chemical. The working solution of 20% DMSO for the compounds was prepared by mixing dimethyl sulfoxide with water in a volume ratio of 1:4, and shaking to mix well.
sEH Assay Buffer (10×), SEH (human recombinant) and sEH substrate were thawed on ice.
The sEH Assay Buffer (lux) was prepared into a 1×sEH Assay Buffer with deionized water. 12 μL of sEH was added with 588 µL of 1× Assay Buffer to be diluted 50 times to obtain a sEH working solution. 180 µL of 1× Assay Buffer was added into the corresponding wells; the sEH working solution was added to the corresponding wells at 5 μL/well; the working solution of 20% DMSO for the compounds was added into the corresponding wells at 5 μL/well, and blank wells and negative control wells added with an equal amount of DMSO were set. After centrifuged at 1000 rpm for 1 minute, the wells were incubated at 25° C. for 30 minutes. After incubation, the substrate was added into the 96-wells plate at 5 μL/well and the plate was centrifuged at 1000 rpm for 1 minute. After incubation at 25° C. for 15 minutes, fluorescence values were read at emission wavelengths of 320 nm and 460 nm.

Consider `CCC1=C(C)CN(C(=O)NCCc2ccc(S(=O)(=O)N(C)C(=O)N[C@H]3CC[C@H](C)CC3)cc2)C1=O` [Compound I-1], for which the “impaired cardiac function (EF value, FS value, dp/dt reduced by TAC)” value in assay [1] (eight weeks) is on record as “can inhibit this effect”. Also, in assay [1] (daily gavage 0.2 and 0.4 mg/kg, eight weeks), the “expression of BNP in mouse cardiomyocytes after TAC” value is recorded as “can inhibit this effect”. For the same compound, in assay [1], the “cross-sectional area of cardiomyocytes, HE staining (myocardial hypertrophy)” value (from here on “cross-sectional area of cardiomyocytes”) is “can inhibit this effect” and the “positive area of Sirius red staining (myocardial fibrosis)” value (shortened to “positive area of Sirius red staining”) is “can inhibit this effect”. For the same compound, on sEH (human recombinant), the IC50 lay within 1 to 10 µM. For the same compound, in assay [2], the “BNP expression induced by PE (cardiomyocyte remodeling)” value (shortened to “BNP expression induced by PE”) is reported as “can inhibit this effect”. In addition, in assay [3], the “content of DHET in cardiomyocytes” value is on record as “reducing” and the “content of EETs in cardiomyocytes” value was “significantly increase”.

In the case of `Cc1ccc(S(=O)(=O)N(C)C(=O)NN2CC3CCCC3C2)cc1` (stereo not shown) [Compound I-4], on sEH (human recombinant), the IC50 was in the range of 1 to 10 µM. Also, the “BNP expression induced by PE” value in assay [2] was “can inhibit this effect”. In assay [3], the “content of DHET in cardiomyocytes” value was “reducing” and the “content of EETs in cardiomyocytes” value is recorded as “significantly increase”.

As to `CCC1=C(C)CN(C(=O)NCCc2ccc(S(=O)(=O)NC(=O)N[C@H]3CC[C@H](COC(C)=O)CC3)cc2)C1=O` [Compound I-23], in assay [1] (eight weeks), the “impaired cardiac function (EF value, FS value, dp/dt reduced by TAC)” value is recorded as “can inhibit this effect”. For the same compound, in assay [1], the “cross-sectional area of cardiomyocytes” value is listed as “can inhibit this effect” and the “positive area of Sirius red staining” value is recorded as “can inhibit this effect”. Moreover, in assay [4] (setting [6]), the “effect on cardiac hypertrophy relative to Empagliflozin” value was “comparable to that of Empagliflozin” and the “effect on impaired cardiac function relative to Empagliflozin” value is given as “comparable to that of Empagliflozin”. In addition, in assay [4] (setting [7]), the “cardiac hypertrophy (heart photographs, heart weight/tibia length HW/TL)” value is listed as “reversal effect”; the “expression of BNP in mouse cardiomyocytes after TAC” value is “can inhibit this effect”; the “impaired cardiac function (EF value, FS value, LVIDs, dp/dt)” value is reported as “can inhibit this effect”; the “positive area of Sirius red staining” value is listed as “can inhibit this effect”. For the same compound, the half-inhibitory concentration (IC50) on sEH (human recombinant) was in the range of 1 to 10 µM. Besides, the “BNP expression induced by PE” value in assay [2] is reported as “can inhibit this effect”. Besides, in assay [3], the “content of DHET in cardiomyocytes” value is “reducing” and the “content of EETs in cardiomyocytes” value is listed as “significantly increase”.

In the case of `CCC1=C(C)CN(C(=O)NCCc2ccc(S(=O)(=O)NC(=O)N[C@H]3CC[C@H](C)CC3)cc2)C1=O` [glimepiride, reference compound], the “impaired cardiac function (EF value and dp/dt reduced by TAC)” value in assay [1] (daily gavage 1.2 mg/kg, eight weeks) is listed as “can inhibit this effect”. For the same compound, in assay [1], the “cross-sectional area of cardiomyocytes” value is reported as “can inhibit this effect” and the “positive area of Sirius red staining” value is listed as “can inhibit this effect”. In assay [2], the “BNP expression induced by PE” value is “can inhibit this effect”. Moreover, the “increase of sEH enzymic activity in the hearts after TAC” value in assay [5] is “could inhibit this effect”. The “inhibitory effect on enzymic activity of sEH in cardiomyocytes” value in assay [3] (effect increases as the concentration increases) is “significant inhibitory effect”.

Usually IC50 stands for the midpoint of a concentration-inhibition curve.
